Data taken from patent US8415469B2, “Compounds and methods for kinase modulation, and indications therefor” (Plexxikon Inc., priority 2005, dated 2013).

Experiments:
Format in all cases: biochemical
[1] = target: T1, B-Raf (Homo sapiens, UniProt P15056); assay: AlphaScreen kinase assay, B-Raf; details: read-out: IC50, activity toward kinase B-Raf
T1 construct: purchased Upstate Biotechnology

[2] = target: T2, Fms (Homo sapiens, UniProt P07333); assay: AlphaScreen kinase assay, Fms; details: read-out: IC50, activity toward kinase Fms
T2 construct: purchased Upstate Biotechnology

[3] = target: T3, B-Raf V600E (Homo sapiens, UniProt P15056, V600E); assay: AlphaScreen kinase assay, B-Raf V600E; details: read-out: IC50, activity toward kinase B-Raf V600E
T3 construct: P4254. pFastBacBD-CDC37 BRAF D437-K722-X, V600E; His6 with pFastBac HT leader (TEV site) (N); made in house; host or cells: Sf9 (baculovirus; chaperone CDC37 co-expressed)

[4] = target: T4, Jnk3 (Homo sapiens, UniProt P53779); assay: AlphaScreen kinase assay, Jnk3; details: read-out: IC50, activity toward kinase Jnk3
T4 construct: purchased Upstate Biotechnology

[5] = target: T5, Jnk1 (Homo sapiens, UniProt P45983); assay: AlphaScreen kinase assay, Jnk1; details: read-out: IC50, activity toward kinase Jnk1
T5 construct: purchased Upstate Biotechnology

[6] = target: T6, FGFR1 (Homo sapiens, UniProt P11362, C488A/C584S); assay: AlphaScreen kinase assay, FGFR1; details: read-out: IC50, activity toward kinase FGFR
T6 construct: P1351.pET N6 BI-PTP FGFR A458-E765-X C488A, C584S; made in house; host or cells: E. coli (PTP1B co-expressed)

[7] = target: T7, Flt1 (Homo sapiens, UniProt P17948); assay: AlphaScreen kinase assay, Flt1; details: read-out: IC50, activity toward kinase Flt1
T7 construct: P1826.pETN6 BI-PTP FLT1 M799-D1165-X WT; His6 (N); made in house; host or cells: E. coli (PTP1B co-expressed)
T7 sequence (P17948 with tags, fused parts or gaps): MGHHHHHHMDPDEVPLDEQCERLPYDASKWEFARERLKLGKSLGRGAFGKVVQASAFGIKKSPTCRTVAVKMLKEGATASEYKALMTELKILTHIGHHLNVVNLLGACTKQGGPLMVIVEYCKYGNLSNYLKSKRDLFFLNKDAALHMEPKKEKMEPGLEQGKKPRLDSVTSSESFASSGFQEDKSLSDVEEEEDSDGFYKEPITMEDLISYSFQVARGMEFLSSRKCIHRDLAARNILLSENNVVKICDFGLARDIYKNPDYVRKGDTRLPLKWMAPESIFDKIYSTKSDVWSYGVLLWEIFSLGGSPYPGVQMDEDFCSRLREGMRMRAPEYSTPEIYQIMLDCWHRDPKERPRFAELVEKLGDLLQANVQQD

[8] = target: T8, c-Raf-1 (Homo sapiens, UniProt P04049); assay: AlphaScreen kinase assay, c-Raf-1; details: read-out: IC50, activity toward kinase c-Raf-1
T8 construct: purchased Upstate Biotechnology

[9] = target: T9, Src (Homo sapiens, UniProt P12931); assay: AlphaScreen kinase assay, Src; details: read-out: IC50, activity toward kinase Src
T9 construct: P1144. pET-N6 BI-PTP SRC V86-L536-X; made in house

[10] = target: T10, Kit (Homo sapiens, UniProt P10721); assay: AlphaScreen kinase assay, Kit; details: read-out: IC50, activity toward kinase Kit
T10 construct: P1332.N6 BI PTP KIT M552-K948-X COD; His6 (N); made in house; host or cells: E. coli (PTP1B co-expressed)

[11] = target: T11, Ret (Homo sapiens, UniProt P07949); assay: AlphaScreen kinase assay, Ret; details: read-out: IC50, activity toward kinase Ret
T11 construct: P1378.pET-SF BI-PTP RET H661-R1012 HIS; made in house
T11 sequence (P07949 with tags, fused parts or gaps): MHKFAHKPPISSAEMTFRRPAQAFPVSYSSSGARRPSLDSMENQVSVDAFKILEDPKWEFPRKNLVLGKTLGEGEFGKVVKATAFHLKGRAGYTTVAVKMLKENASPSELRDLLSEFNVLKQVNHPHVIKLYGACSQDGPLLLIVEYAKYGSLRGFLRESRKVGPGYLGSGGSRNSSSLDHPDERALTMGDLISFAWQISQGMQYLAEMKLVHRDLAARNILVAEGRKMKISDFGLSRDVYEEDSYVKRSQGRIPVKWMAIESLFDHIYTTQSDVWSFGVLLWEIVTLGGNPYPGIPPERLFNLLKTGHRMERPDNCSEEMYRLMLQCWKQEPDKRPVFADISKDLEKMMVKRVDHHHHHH

Measured: IC50

T4 sequence (P53779 whole entry): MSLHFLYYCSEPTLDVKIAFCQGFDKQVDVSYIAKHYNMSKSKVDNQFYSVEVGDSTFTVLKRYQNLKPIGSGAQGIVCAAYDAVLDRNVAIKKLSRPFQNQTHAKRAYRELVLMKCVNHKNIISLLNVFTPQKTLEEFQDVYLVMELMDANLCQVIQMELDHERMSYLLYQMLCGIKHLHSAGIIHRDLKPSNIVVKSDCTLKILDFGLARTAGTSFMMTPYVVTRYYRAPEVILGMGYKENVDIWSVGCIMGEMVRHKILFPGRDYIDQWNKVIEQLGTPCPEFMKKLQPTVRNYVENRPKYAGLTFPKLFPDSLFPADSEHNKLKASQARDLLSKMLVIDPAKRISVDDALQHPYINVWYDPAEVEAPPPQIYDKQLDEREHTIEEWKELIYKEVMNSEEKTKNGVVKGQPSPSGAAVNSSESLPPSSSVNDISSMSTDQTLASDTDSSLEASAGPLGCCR
T2 sequence (P07333 20-972): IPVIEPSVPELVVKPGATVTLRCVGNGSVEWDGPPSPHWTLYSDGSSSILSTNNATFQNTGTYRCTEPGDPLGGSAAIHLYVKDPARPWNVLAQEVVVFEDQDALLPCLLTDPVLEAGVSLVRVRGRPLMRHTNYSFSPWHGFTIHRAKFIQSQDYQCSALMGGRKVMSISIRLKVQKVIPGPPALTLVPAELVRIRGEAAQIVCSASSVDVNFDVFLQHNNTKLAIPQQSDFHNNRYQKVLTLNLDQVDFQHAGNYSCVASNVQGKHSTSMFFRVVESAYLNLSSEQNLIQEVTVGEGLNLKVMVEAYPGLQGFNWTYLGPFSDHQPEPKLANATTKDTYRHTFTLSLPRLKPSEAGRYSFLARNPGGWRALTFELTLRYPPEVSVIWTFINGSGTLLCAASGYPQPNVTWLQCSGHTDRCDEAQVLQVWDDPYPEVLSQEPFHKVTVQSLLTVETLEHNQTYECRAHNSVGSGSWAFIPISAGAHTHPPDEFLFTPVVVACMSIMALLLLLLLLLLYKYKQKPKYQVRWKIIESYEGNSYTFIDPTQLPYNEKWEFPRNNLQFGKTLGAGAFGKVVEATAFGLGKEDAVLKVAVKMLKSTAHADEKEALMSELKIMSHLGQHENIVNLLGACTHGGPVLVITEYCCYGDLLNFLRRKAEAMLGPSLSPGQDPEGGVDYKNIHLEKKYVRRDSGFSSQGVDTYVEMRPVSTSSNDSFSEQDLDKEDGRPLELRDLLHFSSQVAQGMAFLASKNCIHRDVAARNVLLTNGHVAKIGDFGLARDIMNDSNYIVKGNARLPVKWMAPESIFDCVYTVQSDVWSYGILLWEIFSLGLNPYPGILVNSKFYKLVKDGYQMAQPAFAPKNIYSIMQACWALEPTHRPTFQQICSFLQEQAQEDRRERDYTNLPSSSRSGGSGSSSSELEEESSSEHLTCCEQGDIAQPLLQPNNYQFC
T9 sequence (P12931 with tags, fused parts or gaps): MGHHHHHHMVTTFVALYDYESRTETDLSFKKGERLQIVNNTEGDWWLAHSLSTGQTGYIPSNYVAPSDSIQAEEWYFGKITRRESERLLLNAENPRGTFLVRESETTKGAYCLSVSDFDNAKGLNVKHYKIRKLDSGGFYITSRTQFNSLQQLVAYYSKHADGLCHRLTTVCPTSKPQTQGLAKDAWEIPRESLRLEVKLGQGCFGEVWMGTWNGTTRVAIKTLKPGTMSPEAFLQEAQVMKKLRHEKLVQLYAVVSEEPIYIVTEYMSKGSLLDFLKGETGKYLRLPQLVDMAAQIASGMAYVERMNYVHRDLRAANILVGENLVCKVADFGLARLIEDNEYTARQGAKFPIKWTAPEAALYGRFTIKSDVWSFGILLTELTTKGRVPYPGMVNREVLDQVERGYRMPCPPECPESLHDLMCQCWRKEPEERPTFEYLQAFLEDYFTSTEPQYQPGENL
T1 sequence (P15056 whole entry): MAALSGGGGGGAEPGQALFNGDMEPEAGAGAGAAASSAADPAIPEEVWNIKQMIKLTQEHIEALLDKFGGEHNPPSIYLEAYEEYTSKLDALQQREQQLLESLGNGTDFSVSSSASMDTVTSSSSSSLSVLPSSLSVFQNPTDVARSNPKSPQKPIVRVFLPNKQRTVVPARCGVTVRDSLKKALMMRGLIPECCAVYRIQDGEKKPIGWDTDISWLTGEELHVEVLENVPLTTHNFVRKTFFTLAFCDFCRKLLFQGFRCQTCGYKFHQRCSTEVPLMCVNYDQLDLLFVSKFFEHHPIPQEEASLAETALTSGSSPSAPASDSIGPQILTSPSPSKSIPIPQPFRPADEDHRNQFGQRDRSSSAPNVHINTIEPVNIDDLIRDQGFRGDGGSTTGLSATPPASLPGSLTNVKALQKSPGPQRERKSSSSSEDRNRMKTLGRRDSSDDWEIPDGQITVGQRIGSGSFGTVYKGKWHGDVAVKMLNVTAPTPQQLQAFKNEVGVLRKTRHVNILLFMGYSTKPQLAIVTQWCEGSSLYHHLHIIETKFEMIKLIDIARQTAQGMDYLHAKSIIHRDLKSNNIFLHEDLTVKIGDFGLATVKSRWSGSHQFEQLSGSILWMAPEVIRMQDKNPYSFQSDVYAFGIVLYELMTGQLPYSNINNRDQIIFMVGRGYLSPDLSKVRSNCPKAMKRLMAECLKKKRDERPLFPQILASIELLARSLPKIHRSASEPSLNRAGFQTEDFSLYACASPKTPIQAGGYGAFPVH
T10 sequence (P10721 with tags, fused parts or gaps): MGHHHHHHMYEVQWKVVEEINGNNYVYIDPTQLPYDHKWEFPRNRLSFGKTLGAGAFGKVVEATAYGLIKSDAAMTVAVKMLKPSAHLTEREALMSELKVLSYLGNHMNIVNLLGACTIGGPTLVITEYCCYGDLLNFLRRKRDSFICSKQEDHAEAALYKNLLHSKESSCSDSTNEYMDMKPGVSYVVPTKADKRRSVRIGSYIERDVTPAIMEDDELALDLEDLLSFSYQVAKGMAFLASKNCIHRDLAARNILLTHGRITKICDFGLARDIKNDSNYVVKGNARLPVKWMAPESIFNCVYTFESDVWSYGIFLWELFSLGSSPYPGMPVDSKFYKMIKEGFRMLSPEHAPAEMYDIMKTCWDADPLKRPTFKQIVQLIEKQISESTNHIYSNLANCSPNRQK
T5 sequence (P45983 whole entry): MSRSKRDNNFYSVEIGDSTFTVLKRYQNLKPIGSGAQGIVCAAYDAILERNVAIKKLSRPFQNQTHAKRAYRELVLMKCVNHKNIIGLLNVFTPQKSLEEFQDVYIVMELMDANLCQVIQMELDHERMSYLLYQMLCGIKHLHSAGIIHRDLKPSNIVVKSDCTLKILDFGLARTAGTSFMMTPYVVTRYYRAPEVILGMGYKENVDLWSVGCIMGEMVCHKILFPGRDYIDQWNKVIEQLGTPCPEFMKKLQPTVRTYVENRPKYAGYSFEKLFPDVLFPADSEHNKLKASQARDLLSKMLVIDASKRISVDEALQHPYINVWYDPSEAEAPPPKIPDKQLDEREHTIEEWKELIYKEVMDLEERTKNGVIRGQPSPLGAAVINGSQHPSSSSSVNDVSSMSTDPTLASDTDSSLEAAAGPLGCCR
T6 sequence (P11362 458-765 C488A/C584S): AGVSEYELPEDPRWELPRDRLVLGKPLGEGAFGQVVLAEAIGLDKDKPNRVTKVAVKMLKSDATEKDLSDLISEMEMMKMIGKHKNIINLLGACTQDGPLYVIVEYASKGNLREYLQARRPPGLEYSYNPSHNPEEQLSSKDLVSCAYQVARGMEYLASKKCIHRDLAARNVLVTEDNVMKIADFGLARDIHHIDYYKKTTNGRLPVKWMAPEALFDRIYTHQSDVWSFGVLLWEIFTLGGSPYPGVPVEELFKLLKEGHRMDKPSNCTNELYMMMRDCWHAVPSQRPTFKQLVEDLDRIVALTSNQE
T3 sequence (P15056 with tags, fused parts or gaps V600E): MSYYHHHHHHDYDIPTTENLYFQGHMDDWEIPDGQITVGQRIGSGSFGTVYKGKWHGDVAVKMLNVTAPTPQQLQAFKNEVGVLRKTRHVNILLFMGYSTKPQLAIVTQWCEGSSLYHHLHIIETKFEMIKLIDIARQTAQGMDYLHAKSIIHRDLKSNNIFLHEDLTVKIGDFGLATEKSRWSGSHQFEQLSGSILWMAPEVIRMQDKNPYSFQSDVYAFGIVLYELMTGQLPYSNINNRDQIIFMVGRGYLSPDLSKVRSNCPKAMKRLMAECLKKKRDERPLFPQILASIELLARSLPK
T8 sequence (P04049 whole entry): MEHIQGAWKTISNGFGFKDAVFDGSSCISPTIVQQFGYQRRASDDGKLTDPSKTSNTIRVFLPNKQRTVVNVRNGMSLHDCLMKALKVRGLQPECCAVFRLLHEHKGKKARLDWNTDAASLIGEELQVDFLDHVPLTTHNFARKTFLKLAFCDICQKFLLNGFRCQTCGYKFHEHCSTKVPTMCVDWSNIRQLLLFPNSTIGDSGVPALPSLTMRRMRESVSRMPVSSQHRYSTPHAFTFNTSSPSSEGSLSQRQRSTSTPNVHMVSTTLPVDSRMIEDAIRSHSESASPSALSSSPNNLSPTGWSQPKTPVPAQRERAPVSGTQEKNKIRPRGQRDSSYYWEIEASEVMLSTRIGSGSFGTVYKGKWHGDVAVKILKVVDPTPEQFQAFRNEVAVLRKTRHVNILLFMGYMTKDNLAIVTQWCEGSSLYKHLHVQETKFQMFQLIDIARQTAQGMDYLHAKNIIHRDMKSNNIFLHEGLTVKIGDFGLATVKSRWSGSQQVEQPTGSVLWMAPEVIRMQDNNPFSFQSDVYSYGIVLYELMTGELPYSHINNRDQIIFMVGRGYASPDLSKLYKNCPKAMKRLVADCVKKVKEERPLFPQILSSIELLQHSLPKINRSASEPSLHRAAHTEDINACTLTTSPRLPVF

CCCS(=O)(=O)Nc1cccc(C(=O)c2c[nH]c3ncc(-c4ccccc4)cc23)c1C [Compound P-1610]
not listed: [8] | [9] | [10] | [11]
≤ 10 µM: all other assays above

O=C(O)/C=C/c1cccc(-c2cnc3[nH]cc(C(=O)c4ccc(Cl)cc4Cl)c3c2)c1 [Compound P-1585]
≤ 10 µM: [1] | [3] | [4] | [5] | [6] | [7]

CN(C)S(=O)(=O)Nc1ccc(F)c(C(=O)c2c[nH]c3ncccc23)c1F [Compound P-0950, Dimethylamine-1-sulfonic acid [3-(1H-pyrrolo[2,3-b]pyridine-3-carbonyl)-2,4-difluoro-phenyl]-amide]
≤ 10 µM: [8] | [3] | [6] | [9]

O=[N+]([O-])c1cccc(C(O)c2c[nH]c3ncc(-c4cccnc4)cc23)c1 (stereo not drawn) [Compound P-1399, (3-nitro-phenyl)-(5-pyridin-3-yl-1H-pyrrolo[2,3-b]pyridin-3-yl)-methanol]
≤ 10 µM: [2] | [10] | [3] | [6] | [9]

COc1ccnc2[nH]cc(Cc3ccc(NCc4ccc(Cl)cc4)nc3)c12 [Compound P-0373]
≤ 10 µM: [2] | [3] | [6] | [7] | [9]

O=C(c1c[nH]c2ncc(-c3ccc(Cl)cc3)cc12)c1cccc2c1ccn2C(=O)NCc1ccccc1 [Compound P-1618, 4-[5-(4-Chloro-phenyl)-1H-pyrrolo[2,3-b]pyridine-3-carbonyl]-indole-1-carboxylic acid benzylamide]
≤ 10 µM: [2] | [4] | [5] | [7]

COc1cccc(N(C)c2c[nH]c3ncccc23)c1 [Compound P-1506, (3-Methoxy-phenyl)-methyl-(1H-pyrrolo[2,3-b]pyridin-3-yl)-amine]
≤ 10 µM: [2] | [10] | [3] | [9]

O=C(O)/C=C/c1cccc(-c2cnc3[nH]cc(C(=O)c4cccc(C(F)(F)F)c4)c3c2)c1 [Compound P-1416, (E)-3-{3-[3-(3-Trifluoromethyl-benzoyl)-1H-pyrrolo[2,3-b]pyridin-5-yl]-phenyl}-acrylic acid]
≤ 10 µM: [2] | [10] | [3] | [6] | [7] | [9]

Clc1ccc(CNc2ccc(Cc3c[nH]c4nccc(Cl)c34)cn2)cc1 [Compound P-0515]
≤ 10 µM: [2] | [3] | [6] | [7] | [9]

Cc1cccc(C)c1C(=O)c1c[nH]c2ncccc12 [Compound P-1484]
≤ 10 µM: [10] | [9]

Nc1ccc(F)c(C(=O)c2c[nH]c3ncc(-c4ccccc4)cc23)c1 [Compound P-1577]
≤ 10 µM: [1] | [3] | [4] | [5] | [6] | [7]

CCCS(=O)(=O)Nc1ccc(F)c(C(=O)c2c[nH]c3ncc(-c4ccc(C(N)=O)cc4)cc23)c1F [Compound P-1546, 4-{3-[2,6-Difluoro-3-(propane-1-sulfonylamino)-benzoyl]-1H-pyrrolo[2,3-b]pyridin-5-yl}-benzamide]
not listed: [9] | [11]
≤ 10 µM: all other assays above

CS(=O)(=O)Nc1cccc(-c2cnc3[nH]cc(Cc4ccc5c(c4)OCCO5)c3c2)c1 [Compound P-1530, N-{3-[3-(2,3-Dihydro-benzo[1,4]dioxin-6-ylmethyl)-1H-pyrrolo[2,3-b]pyridin-5-yl]-phenyl}-methanesulfonamide]
≤ 10 µM: [2] | [10] | [3] | [6] | [7] | [9]

CCCCNC(=O)Nc1ccc(F)c(C(=O)c2c[nH]c3ncc(-c4cccnc4)cc23)c1 [Compound P-1534, 1-Butyl-3-[4-fluoro-3-(5-pyridin-3-yl-1H-pyrrolo[2,3-b]pyridine-3-carbonyl)-phenyl]-urea]
not listed: [8] | [9] | [11]
≤ 10 µM: all other assays above

O=C(COc1ccc(F)c(Cc2c[nH]c3ncc(-c4cccnc4)cc23)c1F)NCc1ccccc1 [Compound P-1469, N-Benzyl-2-[2,4-difluoro-3-(5-pyridin-3-yl-1H-pyrrolo[2,3-b]pyridin-3-ylmethyl)-phenoxy]-acetamide]
not listed: [4] | [5] | [8] | [11]
≤ 10 µM: all other assays above

O=C(c1c(Cl)cccc1Cl)c1c[nH]c2ncccc12 [Compound P-1476]
≤ 10 µM: [2] | [10] | [6] | [9]

NC(=O)c1cccc(-c2cnc3[nH]cc(C(=O)c4cccc(N)c4)c3c2)c1 [Compound P-1592]
≤ 10 µM: [1] | [3] | [4] | [5] | [6] | [7]

COc1ccc(C(=O)c2c[nH]c3ncc(Br)cc23)c(Cl)c1 [Compound P-0647]
≤ 10 µM: [10] | [3] | [11] | [6] | [9]

O=C(Nc1cccc(C(=O)c2c[nH]c3ncccc23)c1)Nc1ccc(F)c(F)c1 [Compound P-1706, 1-(3,4-Difluoro-phenyl)-3-[3-(1H-pyrrolo[2,3-b]pyridine-3-carbonyl)-phenyl]-urea]
≤ 10 µM: [1] | [2] | [10] | [3] | [4] | [5]

O=C(O)COc1ccc(F)c(Cc2c[nH]c3ncc(-c4cccnc4)cc23)c1F [Compound P-1468, [2,4-difluoro-3-(5-pyridin-3-yl-1H-pyrrolo[2,3-b]pyridin-3-ylmethyl)-phenoxy]-acetic acid]
≤ 10 µM: [2] | [10] | [4] | [5] | [6] | [7]

COCCOc1ccc(F)c(C(=O)c2c[nH]c3ncc(-c4cccc(NS(C)(=O)=O)c4)cc23)c1F [Compound P-1472, N-(3-{3-[2,6-Difluoro-3-(2-methoxy-ethoxy)-benzoyl]-1H-yrrolo[2,3-b]pyridin-5-yl}-phenyl)-methanesulfonamide]
not listed: [4] | [5] | [8] | [11]
≤ 10 µM: all other assays above

CCCS(=O)(=O)Nc1ccc(F)c(Cc2c[nH]c3ncc(NCCN4CCN(C)CC4)cc23)c1F [Compound P-1345]
≤ 10 µM: [3] | [6] | [9]

c1ccc(Oc2cccc(Nc3c[nH]c4ncccc34)c2)cc1 [Compound P-1496, (3-Phenoxy-phenyl)-(1H-pyrrolo[2,3-b]pyridin-3-yl)-amine]
≤ 10 µM: [2] | [9]
